The values below come from US8362012B2, “Benzoxazine benzimidazole derivative, a pharmaceutical composition comprising the same, and a use thereof” (Daewoong Pharmaceutical Co., Ltd., priority 2008, dated 2013).

One experiment has as its system ICR male mice. The experiment in a line: Phenyl-p-quinone (PBQ)-induced writhing experiment using mice. To be noted: orally administered, PBQ (0.02%) intraperitoneally after 1 hour, writhing counted for 10 min. Type of experiment: in vivo. On the procedure:
In order to evaluate the effect on pain of the compounds prepared in the Examples, behaviors such as twisting or writhing of body resulted from pain were verified by the phenyl-p-quinone (PBQ)-induced writhing experiment using mice. 5 week-old ICR male mice were used as experimental animals and PBQ (0.02%), as a chemical stimulator. The suspensions of 20 mg of the compounds of the present invention and an excipient such as Na—CMC (sodium carboxymethyl cellulose) in 10 mL of saline were used as test compounds. The test compounds were orally administered to the mice and after 1 hour, PBQ was intraperitoneally administrated in an amount of 10 mL per kg of body weight. Also, as a control group, equivalent amounts of BCTC were administered. The writhing number of each mouse was measured for 10 min starting from 5 min after the administration, and the analgesic effect was verified by counting the reduced number compared to the control group administered with only excipient and calculating the % inhibitory rate according to the following Formula 2. % inhibition rate=(writhing # of control group−writhing # of test group)/writhing # of control group×100 [Formula 2]
On the technique in general: In writhing tests, fewer writhes than in controls are read as antinociception.

The target of experiment [1] is T1, human vanilloid-1 (hVR-1) in hVR-1-HEK293 cell line (Homo sapiens, UniProt Q8NER1).
T1 construct: expressed in transfected cells; host or cells: HEK293 Tet-on strain, doxycycline-induced
T1 sequence (Q8NER1 whole entry): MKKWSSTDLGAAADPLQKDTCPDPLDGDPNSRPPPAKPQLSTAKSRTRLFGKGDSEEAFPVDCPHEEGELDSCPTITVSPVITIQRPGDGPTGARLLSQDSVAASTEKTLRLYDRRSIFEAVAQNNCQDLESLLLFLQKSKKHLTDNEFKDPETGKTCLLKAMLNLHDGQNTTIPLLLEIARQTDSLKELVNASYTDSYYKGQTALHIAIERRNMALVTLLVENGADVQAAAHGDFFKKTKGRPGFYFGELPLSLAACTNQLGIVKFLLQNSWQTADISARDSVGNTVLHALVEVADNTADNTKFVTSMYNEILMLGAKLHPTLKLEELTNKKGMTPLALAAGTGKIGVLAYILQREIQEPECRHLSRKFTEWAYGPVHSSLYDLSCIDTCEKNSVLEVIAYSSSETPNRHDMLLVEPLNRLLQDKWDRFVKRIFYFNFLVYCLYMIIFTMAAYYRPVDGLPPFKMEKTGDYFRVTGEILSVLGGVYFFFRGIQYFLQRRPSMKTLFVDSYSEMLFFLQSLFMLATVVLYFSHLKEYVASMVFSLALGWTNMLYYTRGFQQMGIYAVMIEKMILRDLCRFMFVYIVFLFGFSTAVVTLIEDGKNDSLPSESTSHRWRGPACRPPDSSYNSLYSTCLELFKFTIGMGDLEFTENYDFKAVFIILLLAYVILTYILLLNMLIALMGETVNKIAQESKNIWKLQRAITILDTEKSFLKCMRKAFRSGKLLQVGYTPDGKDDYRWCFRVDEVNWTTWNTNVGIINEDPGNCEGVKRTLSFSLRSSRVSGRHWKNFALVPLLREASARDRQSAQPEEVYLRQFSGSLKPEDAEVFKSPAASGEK
The experiment in a line: Inhibitory effect on calcium influx via a vanilloid receptor (capsaicin-stimulated, Fluo-3/AM). The format is cell-based. To be noted: hVR-1-HEK293 cells, 1 μM of capsaicin, compounds 0.015˜2000 nM; read-out: I.A. (inhibitory activity), IC50 on intracellular calcium influx. In outline:
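Doxycycline-induced (1 μg/mL, 2 days) hVR-1-HEK293 cells loaded with Fluo-3/AM for 90 min at 37° C, then stimulated with 1 μM capsaicin. Calcium influx expressed as background-corrected fluorescence relative to positive control, analysed by Hill equation and graded by activity criteria.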
A general note: Calcium assays in cells follow changes in intracellular calcium, usually with a dye or a luminescent sensor.

Turning to `Cc1ccc(N2c3cccc(-c4nc5c(C)c(C)ccc5[nH]4)c3OC[C@@H]2CO)nc1` [Example 52, [(S)-8-(4,5-dimethyl-1H-benzimidazol-2-yl)-4-(5-methyl-pyridin-2-yl)-3,4-dihydro-2H-benzo[1,4]oxazin-3-yl]-methanol], in the experiment on ICR male mice, the “I.A. (inhibitory activity), % inhibition rate of writhing” value is given as “++ (20˜50%)”. Also, the IC50 in experiment [1] is less than 20 nM.

`Cc1ccc(N2c3cccc(-c4nc5ccccc5[nH]4)c3OC[C@@H]2CO)nc1` [Example 53, [(S)-8-(1H-benzimidazol-2-yl)-4-(5-methyl-pyridin-2-yl)-3,4-dihydro-2H-benzo[1,4]oxazin-3-yl]-methanol]: the “I.A. (inhibitory activity), % inhibition rate of writhing” value with ICR male mice is given as “+ (<20%)”. The IC50 in experiment [1] is less than 20 nM.

With `C=Cc1ccc(N2c3cccc(-c4nc5ccc(Cl)cc5[nH]4)c3OC[C@@H]2CO)nc1` [Example 59, [(S)-8-(6-chloro-1H-benzimidazol-2-yl)-4-(5-vinyl-pyridin-2-yl)-3,4-dihydro-2H-benzo[1,4]oxazin-3-yl]-methanol], the “I.A. (inhibitory activity), % inhibition rate of writhing” value with ICR male mice was “+++ (51-80%)”. In addition, in experiment [1], the IC50 was less than 20 nM.

Take `C=Cc1ccc(N2c3cccc(-c4nc5ccc(Br)cc5[nH]4)c3OC[C@@H]2CO)nc1` [Example 60, [(S)-8-(6-bromo-1H-benzimidazol-2-yl)-4-(5-vinyl-pyridin-2-yl)-3,4-dihydro-2H-benzo[1,4]oxazin-3-yl]-methanol]: the “I.A. (inhibitory activity), % inhibition rate of writhing” value in the experiment with ICR male mice was “+++ (51-80%)”. The IC50 in experiment [1] is less than 20 nM.

In the case of `C=Cc1ccc(N2c3cccc(-c4nc5c(C)cc(Br)cc5[nH]4)c3OC[C@@H]2CO)nc1` [Example 66, [(S)-8-(6-bromo-4-methyl-1H-benzimidazol-2-yl)-4-(5-vinyl-pyridin-2-yl)-3,4-dihydro-2H-benzo[1,4]oxazin-3-yl]-methanol], in the experiment on ICR male mice, the “I.A. (inhibitory activity), % inhibition rate of writhing” value is “+++ (51-80%)”. For the same molecule, the IC50 in experiment [1] was less than 20 nM.

`C=Cc1ccc(N2c3cccc(-c4nc5ccc(OC(F)(F)F)cc5[nH]4)c3OC[C@@H]2CO)nc1` [Example 67, [(S)-8-(6-trifluoromethoxy-1H-benzimidazol-2-yl)-4-(5-vinyl-pyridin-2-yl)-3,4-dihydro-2H-benzo[1,4]oxazin-3-yl]-methanol]: the “I.A. (inhibitory activity), % inhibition rate of writhing” value with ICR male mice is recorded as “+++ (51-80%)”. In experiment [1], the IC50 is less than 20 nM.

As for `C=Cc1ccc(N2c3cccc(-c4nc5cc(Cl)c(Cl)cc5[nH]4)c3OC[C@@H]2CO)nc1` [Example 68, [(S)-8-(5,6-dichloro-1H-benzimidazol-2-yl)-4-(5-vinyl-pyridin-2-yl)-3,4-dihydro-2H-benzo[1,4]oxazin-3-yl]-methanol], the “I.A. (inhibitory activity), % inhibition rate of writhing” value in the experiment on ICR male mice was “+++ (51-80%)”. Further, the IC50 in experiment [1] is less than 20 nM.

For `C=Cc1ccc(N2c3cccc(-c4nc5cc(F)c(F)cc5[nH]4)c3OC[C@@H]2CO)nc1` [Example 69, [(S)-8-(5,6-difluoro-1H-benzimidazol-2-yl)-4-(5-vinyl-pyridin-2-yl)-3,4-dihydro-2H-benzo[1,4]oxazin-3-yl]-methanol], the “I.A. (inhibitory activity), % inhibition rate of writhing” value with ICR male mice is “+++ (51-80%)”. In addition, the IC50 in experiment [1] fell in the range of 20 to 100 nM.

Turning to `CCc1ccc(N2c3cccc(-c4nc5c(Cl)cc(C(F)(F)F)cc5[nH]4)c3OC[C@@H]2CO)nc1` [Example 80, [(S)-8-(4-chloro-6-trifluoromethyl-1H-benzimidazol-2-yl)-4-(5-ethyl-pyridin-2-yl)-3,4-dihydro-2H-benzo[1,4]oxazin-3-yl]-methanol], the “I.A. (inhibitory activity), % inhibition rate of writhing” value in the experiment on ICR male mice is “+++ (51-80%)”. Further, in experiment [1], the IC50 was less than 20 nM.

As for `CCc1ccc(N2c3cccc(-c4nc5c(Br)cc(C(F)(F)F)cc5[nH]4)c3OC[C@@H]2CO)nc1` [Example 81, [(S)-8-(4-bromo-6-trifluoromethyl-1H-benzimidazol-2-yl)-4-(5-ethyl-pyridin-2-yl)-3,4-dihydro-2H-benzo[1,4]oxazin-3-yl]-methanol], the “I.A. (inhibitory activity), % inhibition rate of writhing” value in the experiment with ICR male mice is “+++ (51-80%)”. Moreover, the IC50 in experiment [1] is less than 20 nM.

For `CCc1ccc(N2c3cccc(-c4nc5ccc(OC(F)(F)F)cc5[nH]4)c3OC[C@@H]2CO)nc1` [Example 82, [(S)-4-(5-ethyl-pyridin-2-yl)-8-(6-trifluoromethoxy-1H-benzimidazol-2-yl)-3,4-dihydro-2H-benzo[1,4]oxazin-3-yl]-methanol], the “I.A. (inhibitory activity), % inhibition rate of writhing” value with ICR male mice is recorded as “+++ (51-80%)”. Further, the 50% inhibitory concentration (IC50) in experiment [1] is 20 to 100 nM.

For `CCc1ccc(N2c3cccc(-c4nc5c(F)cc(Br)cc5[nH]4)c3OC[C@@H]2CO)nc1` [Example 85, [(S)-8-(6-bromo-4-fluoro-1H-benzimidazol-2-yl)-4-(5-ethyl-pyridin-2-yl)-3,4-dihydro-2H-benzo[1,4]oxazin-3-yl]-methanol], the “I.A. (inhibitory activity), % inhibition rate of writhing” value in the experiment with ICR male mice is listed as “+++ (51-80%)”. Besides, the IC50 in experiment [1] is 20 to 100 nM.

Take `CCc1ccc(N2c3cccc(-c4nc5c(F)cc(F)cc5[nH]4)c3OC[C@@H]2CO)nc1` [Example 86, [(S)-8-(4,6-difluoro-1H-benzimidazol-2-yl)-4-(5-ethyl-pyridin-2-yl)-3,4-dihydro-2H-benzo[1,4]oxazin-3-yl]-methanol]: the “I.A. (inhibitory activity), % inhibition rate of writhing” value with ICR male mice is “+++ (51-80%)”. In addition, the half-maximal inhibitory concentration (IC50) in experiment [1] was less than 20 nM.

Take `CCc1ccc(N2c3cccc(-c4nc5ccc(C#N)cc5[nH]4)c3OC[C@@H]2CO)nc1` [Example 87, 2-[(S)-4-(5-ethyl-pyridin-2-yl)-3-hydroxymethyl-3,4-dihydro-2H-benzo[1,4]oxazin-8-yl]-3H-benzimidazol-5-carbonitrile]: the “I.A. (inhibitory activity), % inhibition rate of writhing” value with ICR male mice is given as “+++ (51-80%)”. Also, in experiment [1], the IC50 is less than 20 nM.

As to `COC[C@H]1COc2c(-c3nc4ccc(C(C)(C)C)cc4[nH]3)cccc2N1c1ccc(C)cn1` [Example 88, (S)-8-(6-tert-butyl-1H-benzimidazol-2-yl)-3-methoxymethyl-4-(5-methyl-pyridin-2-yl)-3,4-dihydro-2H-benzo[1,4]oxazine], in the experiment on ICR male mice, the “I.A. (inhibitory activity), % inhibition rate of writhing” value is “++ (20˜50%)”. Besides, the IC50 in experiment [1] is less than 20 nM.

Consider `COC[C@H]1COc2c(-c3nc4ccc(Br)cc4[nH]3)cccc2N1c1ccc(C)cn1` [Example 89, (S)-8-(6-bromo-1H-benzimidazol-2-yl)-3-methoxymethyl-4-(5-methyl-pyridin-2-yl)-3,4-dihydro-2H-benzo[1,4]oxazine], for which, in the experiment with ICR male mice, the “I.A. (inhibitory activity), % inhibition rate of writhing” value was “+++ (51-80%)”. The IC50 in experiment [1] was less than 20 nM.

Turning to `COC[C@H]1COc2c(-c3nc4ccc(C(F)(F)F)cc4[nH]3)cccc2N1c1ccc(C)cn1` [Example 90, (S)-3-methoxymethyl-4-(5-methyl-pyridin-2-yl)-8-(6-trifluoromethyl-1H-benzimidazol-2-yl)-3,4-dihydro-2H-benzo[1,4]oxazine], the “I.A. (inhibitory activity), % inhibition rate of writhing” value in the experiment with ICR male mice is listed as “+++ (51-80%)”. In addition, the IC50 in experiment [1] is less than 20 nM.

On to `COC[C@H]1COc2c(-c3nc4ccc(Cl)cc4[nH]3)cccc2N1c1ccc(C)cn1` [Example 91, (S)-3-methoxymethyl-4-(5-methyl-pyridin-2-yl)-8-(6-chloro-1H-benzimidazol-2-yl)-3,4-dihydro-2H-benzo[1,4]oxazine], for which the “I.A. (inhibitory activity), % inhibition rate of writhing” value in the experiment on ICR male mice is listed as “++ (20˜50%)”. Moreover, the IC50 in experiment [1] was less than 20 nM.

A word on the IC50: it is the concentration at which inhibition is half-maximal.
